Counter-ions that a name gives are not always drawn. Like-named read-outs stand apart in the source and are kept apart here.
Key:
[1] = system: MRC-5 (human fetal lung fibroblasts); assay: Antiproliferative MTT assay, MRC-5; assay type: cell-based; settings: 72 h, mean ± SD of three experiments
Procedure: (§1) The effect of the new synthesized compounds was tested on five human tumor cell lines, HeLa (human cervical adenocarcinoma; from ATCC), CaCo-2 (human colorectal adenocarcinoma), HL-60 (acute promyelocytic leukemia), HuT78 (T-cell lymphoma), and THP-1 (acute monocytic leukemia), as well as one non-tumor cell line, MRC-5 (human fetal lung fibroblasts). The MRC-5 cells were used between 24 and 26 passages. The cells were cultured in two different types of media: DMEM (Gibco Thermo Fisher Scinetific Inc., Runcorn, UK) and RPMI 1640 (Gibco, Thermo Fisher Scinetific Inc., UK). Both media were supplemented with 2 mM glutamine, fetal bovine serum (10%; heat inactivated), and antibiotics (100 U penicillin and 0.1 mg streptomycin). RPMI 1640 was additionally supplemented with 10 mM HEPES and 1 mM sodium pyruvate. Cells growing in a monolayer were cultured in DMEM, while cells growing in suspension were cultured in RPMI 1640. Cells were grown in humidified atmosphere under the conditions of 37 °C/5% CO2 gas in a CO2 incubator (IGO 150 CELLlife^TM, JOUAN, Thermo Fisher Scientific, Waltham, MA, USA).
(§2) Growth-inhibitory activity was assessed using a slightly modified procedure based on the National Cancer Institute’s protocol. Briefly, cells were seeded in 96-well microtiter plates and incubated for 24 h. They were then treated with 10^−7 to 10^−4 M concentrations of the tested compounds for an additional 72 h. After the treatment period, the effects of the tested compounds on the growth rate of the cells were examined using the MTT assay. Absorbance was measured at 595 nm using a microplate reader. The IC50 value, which represents a 50% inhibition of cell growth, and QC calculation were performed using the GraphPadPrism software (La Jolla, USA), v. 5.03. and Excel software, Office 365. The selectivity index was calculated according to the following formula: SI=IC50 value of normal cell line/IC50 value of cancer cell line
(§3) The effect of each concentration was analyzed by plotting the logarithm of the concentration of the evaluated compound against the corresponding percentage inhibition value using least squares.

[2] = system: HeLa (human cervical adenocarcinoma); assay: Antiproliferative MTT assay, HeLa; assay type: cell-based; settings: 72 h, mean ± SD of three experiments
Procedure: as §1, §2, §3

[3] = system: CaCo-2 (human colorectal adenocarcinoma); assay: Antiproliferative MTT assay, CaCo-2; assay type: cell-based; settings: mean ± SD of three experiments
Procedure: as §1, §2, §3

[4] = system: THP-1 (acute monocytic leukemia); assay: Antiproliferative MTT assay, THP-1; assay type: cell-based, human; settings: mean ± SD of three experiments
Procedure: as §1, §2, §3

HuT78 (T-cell lymphoma) = assay: Antiproliferative MTT assay, Hut78; assay type: cell-based, human; settings: mean ± SD of three experiments
Procedure: as §1, §2, §3

[5] = system: HL-60 (acute promyelocytic leukemia); assay: Antiproliferative MTT assay, HL-60; assay type: cell-based, human; settings: mean ± SD of three experiments
Procedure: as §1, §2, §3

[6] = system: P. falciparum 3D7 (CQ-susceptible), erythrocytic stage; assay: Antiplasmodial HRP2 assay, Pf3D7; assay type: cell-based, Plasmodium falciparum; settings: read-out: IC50 Pf3D7
Procedure: (§4) Method used to evaluate the antiplasmodial activity of quinoline–benzimidazole hybrids against two P. falciparum strains, chloroquine-sensitive (Pf3D7) and chloroquine-resistant (PfDd2), was previously described. […] Chloroquine was used as a positive control.
(§5) In brief, 96-well plates were pre-coated with the tested compounds at 1:3 dilution before ring-stage parasites were added to the complete culture medium at a hematocrit of 1.5% and a parasitemia of 0.05%. […] All compounds were analyzed in duplicate in at least two independent experiments. The IC50 was determined by nonlinear regression analysis of the logarithmic concentration-response curves using the drc package v3.0-1 of R v4.1.0 [56].

[7] = system: P. falciparum Dd2 (multiresistant), erythrocytic stage; assay: Antiplasmodial HRP2 assay, PfDd2; assay type: cell-based, Plasmodium falciparum; settings: read-out: IC50 PfDd2
Procedure: as §4, §5

[8] = Homo sapiens, MRC5, non-tumor cell line
[9] = Plasmodium falciparum, 3D7, 72 h, chloroquine-sensitive strain, three days incubation, HRP2-ELISA, mean ± SD, n ≥ 2
[10] = Plasmodium falciparum, DD2, 72 h, chloroquine-resistant strain, three days incubation, HRP2-ELISA, mean ± SD, n ≥ 2

Molecule	IC50 [1, 8]	IC50 ([2]; Homo sapiens, HeLa)	IC50 ([3]; Homo sapiens, Caco-2, 72 h)	IC50 ([4]; Homo sapiens, THP-1, 72 h)	IC50 (HuT78 (T-cell lymphoma); Homo sapiens, HuT78, 72 h)	IC50 ([5]; Homo sapiens, HL-60, 72 h)	IC50 [6, 9]	IC50 [7, 10]	melting point	other results
COc1ccc2nc(-c3ccc(OCCCNc4ccnc5cc(Cl)ccc45)cc3)[nH]c2c1 [Compound 13c]	2700 ± 500 nM	200 ± 200 nM	1000 ± 500 nM	2600 nM	1100 ± 500 nM	300 ± 200 nM	12.8 ± 0.5 nM	11.9 ± 1.6 nM	212 °C (dec.)	–
Clc1ccc2c(NCCCOc3ccc(-c4nc5ccccc5[nH]4)cc3)ccnc2c1 [Compound 13a]	300 ± 200 nM	3000 ± 2300 nM	1100 ± 400 nM	3000 ± 800 nM	1600 ± 800 nM	400 ± 200 nM	2.6 ± 0.7 nM	4.8 ± 0.3 nM	200 to 202 °C	–
Clc1ccc2c(NCCCOc3ccc(-c4nc5ccc(Cl)cc5[nH]4)cc3Br)ccnc2c1 [Compound 14b, N-{[2-bromo-4-(5(6)-chloro-1H-benzo[d]imidazole-2-yl)phenoxy]propyl}-7-chloroquinolin-4-amine]	2000 ± 1800 nM	1500 ± 1000 nM	1500 ± 1100 nM	6800 ± 3500 nM	900 ± 600 nM	400 ± 100 nM	5 ± 1.4 nM	14.2 ± 1.2 nM	219 to 221 °C	–
COc1cc(-c2nc3ccccc3[nH]2)ccc1OCCCNc1ccnc2cc(Cl)ccc12 [Compound 15a, N-{[4-(1H-benzo[d]imidazole-2-yl)-2-methoxyphenoxy]propyl}-7-chloroquinolin-4-amine]	300 ± 100 nM	400 ± 100 nM	800 ± 100 nM	2200 ± 500 nM	1500 ± 300 nM	400 ± 100 nM	4.4 ± 0.3 nM	11.2 ± 0.5 nM	179 to 181 °C	–
Clc1ccc2c(NCCOc3ccc(-c4nc5ccccc5[nH]4)cc3)ccnc2c1 [Compound 10a]	3100 ± 300 nM	3400 ± 500 nM	6100 ± 4900 nM	2400 ± 200 nM	2800 ± 500 nM	1300 ± 900 nM	2.7 ± 0.2 nM	3.3 ± 0.1 nM	171 to 173 °C	–
COc1cc(-c2nc3ccc(C(=N)NC4CCCC4)cc3[nH]2)ccc1OCCNc1ccnc2cc(Cl)ccc12 [Compound 12d, 2-{3-methoxy-4-[2-(7-chloroquinolin-4-ylamino)ethoxy]phenyl}-N-cyclopentyl-1H-benzo[d]imidazole-5(6)-carboximidamide trihydrochloride]	> 100000 nM	> 100000 nM	> 100000 nM	100000 nM	16100 ± 4700 nM	52500 ± 5100 nM	190 ± 11.5 nM	120 ± 7.5 nM	–	–
Clc1ccc2c(NCCOc3ccc(-c4nc5ccc(Cl)cc5[nH]4)cc3)ccnc2c1 [Compound 10b, 7-chloro-N-{2-[4-(5(6)-chloro-1H-benzo[d]imidazole-2-yl)phenoxy]ethyl}quinolin-4-amine]	4000 ± 1100 nM	2700 ± 200 nM	1900 ± 200 nM	3400 ± 800 nM	1600 ± 1200 nM	2000 ± 400 nM	3.5 ± 1.5 nM	4.9 ± 0.8 nM	222 to 224 °C	–
COc1cc(-c2nc3ccc(Cl)cc3[nH]2)ccc1OCCCNc1ccnc2cc(Cl)ccc12 [Compound 15b, 7-chloro-N-{[4-(5(6)-chloro-benzo[d]imidazole-2-yl)-2-methoxyphenoxy]propyl}quinolin-4-amine]	300 nM	300 ± 100 nM	1100 ± 600 nM	2500 ± 300 nM	700 ± 400 nM	200 ± 100 nM	4.7 ± 1.5 nM	5.2 ± 0.5 nM	190 to 192 °C	–
COc1cc(-c2nc3ccc(C(=N)NC4CCCC4)cc3[nH]2)ccc1OCCCNc1ccnc2cc(Cl)ccc12 (as salt: hydrochloride) [Compound 15d]	–	–	–	–	–	–	–	–	260 °C (dec.)	–
Clc1ccc2c(NCCOc3ccc(-c4nc5ccc(Cl)cc5[nH]4)cc3Br)ccnc2c1 [Compound 11b, N-{[2-bromo-4-(5(6)-chloro-1H-benzo[d]imidazole-2-yl)phenoxy]ethyl}-7-chloroquinolin-4-amine]	3000 ± 900 nM	5400 ± 4600 nM	13300 ± 2500 nM	4400 ± 5100 nM	5800 ± 1900 nM	1300 ± 900 nM	87.3 ± 3.3 nM	88.3 ± 3.1 nM	238 to 240 °C	–
N=C(NC1CCCC1)c1ccc2nc(-c3ccc(OCCNc4ccnc5cc(Cl)ccc45)c(Br)c3)[nH]c2c1 (as salt: hydrochloride) [Compound 11d, 2-{3-bromo-4-[2-(7-chloroquinolin-4-ylamino)ethoxy]phenyl}-N-cyclopentyl-1H-benzo[d]imidazole-5(6)-carboximidamide trihydrochloride]	–	–	–	–	–	–	–	–	234 °C (dec.)	–
N=C(NC1CCCC1)c1ccc2nc(-c3ccc(OCCCNc4ccnc5cc(Cl)ccc45)cc3)[nH]c2c1 (as salt: hydrochloride) [Compound 13d]	–	–	–	–	–	–	–	–	> 275 °C	–
N=C(NC1CCCC1)c1ccc2nc(-c3ccc(OCCNc4ccnc5cc(Cl)ccc45)c(Br)c3)[nH]c2c1 [Compound 11d, 2-{3-bromo-4-[2-(7-chloroquinolin-4-ylamino)ethoxy]phenyl}-N-cyclopentyl-1H-benzo[d]imidazole-5(6)-carboximidamide trihydrochloride]	> 100000 nM	> 100000 nM	> 100000 nM	33900 ± 3600 nM	17300 ± 9200 nM	44300 ± 1200 nM	321 ± 32.8 nM	984 ± 521 nM	–	–
COc1cc(-c2nc3ccc(C(=N)NC4CCCC4)cc3[nH]2)ccc1OCCNc1ccnc2cc(Cl)ccc12 (as salt: hydrochloride) [Compound 12d, 2-{3-methoxy-4-[2-(7-chloroquinolin-4-ylamino)ethoxy]phenyl}-N-cyclopentyl-1H-benzo[d]imidazole-5(6)-carboximidamide trihydrochloride]	–	–	–	–	–	–	–	–	226 °C (dec.)	–
N=C(NC1CCCC1)c1ccc2nc(-c3ccc(OCCCNc4ccnc5cc(Cl)ccc45)cc3)[nH]c2c1 [Compound 13d]	83000 ± 5400 nM	> 100000 nM	> 100000 nM	14400 ± 3100 nM	15200 ± 3000 nM	18200 ± 6700 nM	57.4 ± 1.9 nM	198.3 ± 0.1 nM	–	–
N=C(NC1CCCC1)c1ccc2nc(-c3ccc(OCCCNc4ccnc5cc(Cl)ccc45)c(Br)c3)[nH]c2c1 [Compound 14d]	> 100000 nM	> 100000 nM	> 100000 nM	100000 nM	19700 ± 4000 nM	24400 ± 4400 nM	159 ± 22.6 nM	451 ± 40.3 nM	–	–
N=C(NC1CCCC1)c1ccc2nc(-c3ccc(OCCCNc4ccnc5cc(Cl)ccc45)c(Br)c3)[nH]c2c1 (as salt: hydrochloride) [Compound 14d]	–	–	–	–	–	–	–	–	265 °C (dec.)	–
N-{2-[4-(1H-benzo[d]imidazole-2-yl)-2-bromophenoxy]propyl}-7-chloroquinolin-4-amine [Compound 14a]	–	–	–	–	–	–	–	–	–	IC50 ([1]; non-tumor cell line): 600 ± 600 nM; IC50 [2]: 1200 ± 700 nM; IC50 ([3]; 72 h): 5000 ± 7300 nM; IC50 ([4]; 72 h): 5100 ± 1700 nM; IC50 (HuT78 (T-cell lymphoma); 72 h): 1700 ± 400 nM; IC50 ([5]; 72 h): 700 ± 500 nM; IC50 ([6]; chloroquine-sensitive strain, three days incubation, HRP2-ELISA, mean ± SD, n ≥ 2): 9.3 ± 0.9 nM; IC50 ([7]; chloroquine-resistant strain, three days incubation, HRP2-ELISA, mean ± SD, n ≥ 2): 13 ± 1.9 nM
CCN(CC)CCCC(C)Nc1ccnc2cc(Cl)ccc12 (centres unmarked) [CQ, Chloroquine, reference compound]	–	–	–	–	–	–	–	–	–	IC50 ([6]; Plasmodium falciparum, 3D7, 72 h): 11.1 ± 0.5 nM; IC50 ([7]; Plasmodium falciparum, DD2, 72 h): 360 ± 27.1 nM

— article PMC11243327, “Design, Synthesis, Antitumor, and Antiplasmodial Evaluation of New 7-Chloroquinoline–Benzimidazole Hybrids” (Molecules, 2024)
